Our source for the inhibition values is ChEMBL document CHEMBL4665770, “Design and Discovery of Natural Cyclopeptide Skeleton Based Programmed Death Ligand 1 Inhibitor as Immune Modulator for Cancer Therapy” (J Med Chem, 2020).

Each structure is given as a SMILES string. Square brackets hold non-standard residues; d marks the D form. Peptide text beside a SMILES is read from it.

This assay addresses Programmed cell death protein 1/Programmed cell death 1 ligand 1 (Homo sapiens) (UniProt Q15116+Q9NZQ7). The assay is described as follows: Inhibition of PD1-Tag2/PD-L1-Tag1 (unknown origin) protein-protein interaction at 20 uM preincubated for 15 mins followed by addition of anti-Tag1-Eu3+ and anti-Tag2-XL665 measured after 3 hrs by HTRF assay relative to control. Type of assay: protein-complex assay. Particulars: time 195.0 min.
With `CC(C)C[C@@H]1NC(=O)[C@H](CC(=O)O)NC(=O)[C@H]([C@@H](C)O)NC(=O)[C@@H]2CCCN2C(=O)[C@@H](Cc2ccccc2)NC(=O)[C@H](CC(C)C)NC(=O)[C@H](CCCCN)NC(=O)[C@H](C(C)C)NC(=O)[C@@H]2CCCN2C(=O)[C@@H](Cc2ccccc2)NC1=O` (cyclo(DL[dF]PVKL[dF]PT)), the inhibition came out at 3.52%. For the molecule `CC(C)C[C@@H]1NC(=O)[C@H](C)NC(=O)[C@H](C(C)C)NC(=O)[C@@H]2CCCN2C(=O)[C@@H](Cc2ccccc2)NC(=O)[C@H](CC(C)C)NC(=O)[C@H](CCCNC(=N)N)NC(=O)[C@H](C(C)C)NC(=O)[C@@H]2CCCN2C(=O)[C@@H](Cc2ccccc2)NC1=O` (cyclo(AL[dF]PVRL[dF]PV)), the inhibition is 28.8%. Next, `CC(C)C[C@@H]1NC(=O)[C@H](CC(=O)O)NC(=O)[C@H](C(C)C)NC(=O)[C@@H]2CCCN2C(=O)[C@@H](Cc2ccccc2)NC(=O)[C@H](CC(C)C)NC(=O)[C@H](CCCNC(=N)N)NC(=O)[C@H](C(C)C)NC(=O)[C@@H]2CCCN2C(=O)[C@@H](CCC(=O)O)NC1=O` (cyclo(DL[dE]PVRL[dF]PV)): 22.5%.

With `CC(C)C[C@@H]1NC(=O)[C@H](CCCNC(=N)N)NC(=O)[C@H](C(C)C)NC(=O)[C@@H]2CCCN2C(=O)[C@@H](Cc2ccccc2)NC(=O)[C@H](CC(C)C)NC(=O)[C@H]([C@@H](C)O)NC(=O)[C@@H]2CCCN2C(=O)[C@H](CC(=O)O)NC(=O)[C@@H](Cc2ccccc2)NC1=O` (cyclo(DPTL[dF]PVRL[dF])), the inhibition stood at 12.9%. In the case of `CC[C@H](C)[C@@H]1NC(=O)[C@@H]2CCCN2C(=O)[C@@H](Cc2ccccc2)NC(=O)[C@H](CC(C)C)NC(=O)[C@H](CC(=O)O)NC(=O)[C@H]([C@@H](C)O)NC(=O)[C@@H]2CCCN2C(=O)[C@@H](Cc2c[nH]c3ccccc23)NC(=O)[C@H](CC(C)C)NC(=O)[C@H](CCCNC(=N)N)NC1=O` (cyclo(DL[dF]PIRL[dW]PT)), the inhibition was 33.3%. In the case of `CC(C)C[C@@H]1NC(=O)[C@H](CC(=O)O)NC(=O)[C@H]([C@@H](C)O)NC(=O)[C@@H]2CCCN2C(=O)[C@@H](Cc2ccccc2)NC(=O)[C@H](CC(C)C)NC(=O)[C@H](CCC(N)=O)NC(=O)[C@H](C(C)C)NC(=O)[C@@H]2CCCN2C(=O)[C@@H](Cc2ccccc2)NC1=O` (cyclo(DL[dF]PVQL[dF]PT)) it was 47.5%; in that of `CC(C)C[C@@H]1NC(=O)[C@H](CCCNC(=N)N)NC(=O)[C@H](C(C)C)NC(=O)[C@@H]2CCCN2C(=O)[C@@H](Cc2ccccc2)NC(=O)[C@H](Cc2cnc[nH]2)NC(=O)[C@H](CC(=O)O)NC(=O)[C@H]([C@@H](C)O)NC(=O)[C@@H]2CCCN2C(=O)[C@@H](Cc2ccccc2)NC1=O` (cyclo(DH[dF]PVRL[dF]PT)), -8.61%.

`CC(C)C[C@@H]1NC(=O)[C@H](CCCNC(=N)N)NC(=O)[C@H](C(C)C)NC(=O)[C@@H]2CCCN2C(=O)[C@@H](Cc2ccccc2)NC(=O)[C@H](C)NC(=O)[C@H](CCCNC(=N)N)NC(=O)[C@H](C)NC(=O)[C@@H]2CCCN2C(=O)[C@@H](Cc2ccccc2)NC1=O` (cyclo(ARA[dF]PVRL[dF]P)): the inhibition was determined as 43.6%. On to `CC(C)C[C@@H]1NC(=O)[C@H](CCCNC(=N)N)NC(=O)[C@H](C(C)C)NC(=O)[C@@H]2CCCN2C(=O)[C@@H](Cc2ccccc2)NC(=O)[C@H](C)NC(=O)[C@H](CCC(=O)O)NC(=O)[C@H](C)NC(=O)[C@@H]2CCCN2C(=O)[C@@H](Cc2ccccc2)NC1=O`, for which the inhibition was -6.08%. Next, `CC(C)C[C@@H]1NC(=O)[C@H](CC(=O)O)NC(=O)[C@H]([C@@H](C)O)NC(=O)[C@@H]2CCCN2C(=O)[C@@H](Cc2ccccc2)NC(=O)[C@H](Cc2cnc[nH]2)NC(=O)[C@H](CCCNC(=N)N)NC(=O)[C@H](C(C)C)NC(=O)[C@@H]2CCCN2C(=O)[C@@H](Cc2ccccc2)NC1=O` (cyclo(DL[dF]PVRH[dF]PT)): 7.13%; `CC(C)C[C@@H]1NC(=O)[C@H](CCCNC(=N)N)NC(=O)[C@H](C(C)C)NC(=O)[C@@H]2CCCN2C(=O)[C@@H](Cc2ccccc2)NC(=O)[C@H](CC(C)C)NC(=O)[C@H]([C@@H](C)O)NC(=O)[C@@H]2CCCN2C(=O)[C@@H](Cc2ccccc2)NC(=O)[C@H](CC(=O)O)NC1=O` (cyclo(D[dF]PTL[dF]PVRL)): -2.13%; `CC(C)C[C@@H]1NC(=O)[C@H](CC(=O)O)NC(=O)[C@H]([C@@H](C)O)NC(=O)[C@@H]2CCCN2C(=O)[C@@H](Cc2ccccc2)NC(=O)[C@H](CC(C)C)NC(=O)[C@H](CC(N)=O)NC(=O)[C@H](C(C)C)NC(=O)[C@@H]2CCCN2C(=O)[C@@H](Cc2ccccc2)NC1=O` (cyclo(DL[dF]PVNL[dF]PT)): 16.6%. Next, `CC(C)C[C@@H]1NC(=O)[C@H](CCCNC(=N)N)NC(=O)[C@H](CC(=O)O)NC(=O)[C@H](C(C)C)NC(=O)[C@@H]2CCCN2C(=O)[C@@H](Cc2ccccc2)NC(=O)[C@H](CC(C)C)NC(=O)[C@H]([C@@H](C)O)NC(=O)[C@@H]2CCCN2C(=O)[C@@H](Cc2ccccc2)NC1=O` (cyclo(DRL[dF]PTL[dF]PV)): -4.8%. For the molecule `CC(C)C[C@@H]1NC(=O)[C@H](CCCNC(=N)N)NC(=O)[C@H](C(C)C)NC(=O)[C@H](C)NC(=O)[C@@H](Cc2ccccc2)NC(=O)[C@H](C)NC(=O)[C@H](CCCNC(=N)N)NC(=O)[C@H](C(C)C)NC(=O)[C@@H]2CCCN2C(=O)[C@@H](Cc2ccccc2)NC1=O` (cyclo(AVRL[dF]PVRA[dF])), the inhibition is -0.657%. As for `CC(C)C[C@@H]1NC(=O)[C@H](CC(=O)O)NC(=O)[C@H]([C@@H](C)O)NC(=O)[C@@H]2CCCN2C(=O)[C@@H](Cc2ccccc2)NC(=O)[C@H](CC(C)C)NC(=O)[C@H](CCCNC(=N)N)NC(=O)[C@H](C(C)C)NC(=O)[C@@H]2CCCN2C(=O)[C@@H](Cc2c[nH]c3ccccc23)NC1=O` (cyclo(DL[dW]PVRL[dF]PT)), the inhibition amounted to 35.8%. In the case of `CC(C)C[C@@H]1NC(=O)[C@H](CCCNC(=N)N)NC(=O)[C@H](C(C)C)NC(=O)[C@H](CC(C)C)NC(=O)[C@@H](Cc2ccccc2)NC(=O)[C@H](C)NC(=O)[C@H](CCCNC(=N)N)NC(=O)[C@H](C(C)C)NC(=O)[C@@H]2CCCN2C(=O)[C@@H](Cc2ccccc2)NC1=O` (cyclo(A[dF]LVRL[dF]PVR)) it was 11.2%.

Take `CC(C)C[C@@H]1NC(=O)[C@H](CCCNC(=N)N)NC(=O)[C@H]([C@@H](C)O)NC(=O)[C@@H]2CCCN2C(=O)[C@@H](Cc2ccccc2)NC(=O)[C@H](CC(C)C)NC(=O)[C@H](CCCNC(=N)N)NC(=O)[C@H](C(C)C)NC(=O)[C@@H]2CCCN2C(=O)[C@@H](Cc2ccccc2)NC1=O` (cyclo(L[dF]PTRL[dF]PVR)): the inhibition is 16.9%.

On to `CC(C)C[C@@H]1NC(=O)[C@H](CO)NC(=O)[C@H]([C@@H](C)O)NC(=O)[C@@H]2CCCN2C(=O)[C@@H](Cc2ccccc2)NC(=O)[C@H](CC(C)C)NC(=O)[C@H](CCCNC(=N)N)NC(=O)[C@H](C(C)C)NC(=O)[C@@H]2CCCN2C(=O)[C@@H](Cc2ccccc2)NC1=O` (cyclo(L[dF]PTSL[dF]PVR)), for which the inhibition amounted to 29.7%. In the case of `CC(C)C[C@@H]1NC(=O)[C@H](CC(=O)O)NC(=O)[C@H]([C@@H](C)O)NC(=O)[C@@H]2CCCN2C(=O)[C@@H](Cc2ccccc2)NC(=O)[C@H](CC(N)=O)NC(=O)[C@H](CCCNC(=N)N)NC(=O)[C@H](C(C)C)NC(=O)[C@@H]2CCCN2C(=O)[C@@H](Cc2ccccc2)NC1=O` (cyclo(DL[dF]PVRN[dF]PT)) it was 17.4%.

On to `CC(C)C[C@@H]1NC(=O)[C@H](Cc2ccc(O)cc2)NC(=O)[C@H]([C@@H](C)O)NC(=O)[C@@H]2CCCN2C(=O)[C@@H](Cc2ccccc2)NC(=O)[C@H](CC(C)C)NC(=O)[C@H](CCCNC(=N)N)NC(=O)[C@H](C(C)C)NC(=O)[C@@H]2CCCN2C(=O)[C@@H](Cc2ccccc2)NC1=O` (cyclo(L[dF]PTYL[dF]PVR)), for which the inhibition stood at 8.25%.

Consider `CC(C)C[C@@H]1NC(=O)[C@H](CCCNC(=N)N)NC(=O)[C@H](C(C)C)NC(=O)[C@H](CC(=O)O)NC(=O)[C@@H]2CCCN2C(=O)[C@@H](Cc2ccccc2)NC(=O)[C@H](CC(C)C)NC(=O)[C@H]([C@@H](C)O)NC(=O)[C@@H]2CCCN2C(=O)[C@@H](Cc2ccccc2)NC1=O` (cyclo(DVRL[dF]PTL[dF]P)), for which the inhibition is 1.93%. In the case of `CC(C)C[C@@H]1NC(=O)[C@H](CC(=O)O)NC(=O)[C@H]([C@@H](C)O)NC(=O)[C@@H]2CCCN2C(=O)[C@@H](Cc2ccccc2)NC(=O)[C@H](CC(C)C)NC(=O)[C@H](CCCNC(=N)N)NC(=O)[C@H](C(C)C)NC(=O)[C@@H]2CCCN2C(=O)[C@@H](Cc2ccc(O)cc2)NC1=O` (cyclo(DL[dY]PVRL[dF]PT)) it was 18.7%. For `CC(C)C[C@@H]1NC(=O)[C@H](CCCNC(=N)N)NC(=O)[C@H](C(C)C)NC(=O)[C@@H]2CCCN2C(=O)[C@H](CC(=O)O)NC(=O)[C@@H](Cc2ccccc2)NC(=O)[C@H](CC(C)C)NC(=O)[C@H]([C@@H](C)O)NC(=O)[C@@H]2CCCN2C(=O)[C@@H](Cc2ccccc2)NC1=O` (cyclo(DPVRL[dF]PTL[dF])), the inhibition was -0.905%.

As to `CC(C)C[C@@H]1NC(=O)[C@H](CCCNC(=N)N)NC(=O)[C@H](C(C)C)NC(=O)[C@@H]2CCCN2C(=O)[C@@H](Cc2ccccc2)NC(=O)[C@H](C)NC(=O)[C@H](CC(=O)O)NC(=O)[C@H]([C@@H](C)O)NC(=O)[C@@H]2CCCN2C(=O)[C@@H](Cc2ccccc2)NC1=O` (cyclo(A[dF]PVRL[dF]PTD)), the inhibition is -5.69%.

In the case of `CC(C)C[C@@H]1NC(=O)[C@H](CCCNC(=N)N)NC(=O)[C@H]([C@@H](C)O)NC(=O)[C@@H]2CCCN2C(=O)[C@@H](Cc2ccccc2)NC(=O)[C@H](CC(C)C)NC(=O)[C@H](CC(=O)O)NC(=O)[C@H](C)NC(=O)[C@@H]2CCCN2C(=O)[C@@H](Cc2ccccc2)NC1=O` (cyclo(ADL[dF]PTRL[dF]P)), the inhibition worked out at 41.2%. Next, `CC(C)C[C@@H]1NC(=O)[C@H](CC(=O)O)NC(=O)[C@H]([C@@H](C)O)NC(=O)[C@@H]2CCCN2C(=O)[C@@H](Cc2ccccc2)NC(=O)[C@H](CC(C)C)NC(=O)[C@H](Cc2cnc[nH]2)NC(=O)[C@H](C(C)C)NC(=O)[C@@H]2CCCN2C(=O)[C@@H](Cc2ccccc2)NC1=O` (cyclo(DL[dF]PVHL[dF]PT)): 6.8%.
